Data on 8 molecules can be found in US8906944B2, “Compounds as tyrosine kinase modulators” (Allergan, Inc., priority 2009, dated 2014).

Format in all cases: biochemical
For one assay, the target named is PDGFβ (Homo sapiens, UniProt P09619). Description: PDGFβ enzyme assay. As to conditions: Table IV, amide or urea linker.
A further assay addresses VEGFR1 (Homo sapiens, UniProt P17948). Description: VEGFR1 enzyme assay. As to conditions: Table IV, amide or urea linker.
In assay [1] the target is T1, human VEGF receptor (VEGFR-2) (Homo sapiens, UniProt P35968).
T1 construct: The cytoplasmic domain of the human VEGF receptor (VEGFR-2) was expressed; His; made in house; host or cells: insect cells (baculovirus)
Description: VEGFR2 kinase assay. Conditions: His-VEGFR-2 cytoplasmic domain, 3.6 μM ATP; Table IV, amide or urea linker; read-out: VEGFR2 Enzyme IC50. Here is the method:
The cytoplasmic domain of the human VEGF receptor (VEGFR-2) was expressed as a Histidine-tagged fusion protein following infection of insect cells using an H is engineered baculovirus. […] Kinase assays were performed in 96 well microtiter plates that were coated overnight with 30 µg of poly-Glu-Tyr (4:1) in 10 mM Phosphate Buffered Saline (PBS), pH 7.2-7.4. The plates were incubated with 1% BSA and then washed four times with PBS prior to starting the reaction. Reactions were carried out in 120 µL reaction volumes containing 3.6 µM ATP in kinase buffer (50 mM Hepes buffer pH 7.4, 20 mM MgCl2, 0.1 mM MnCl2 and 0.2 mM Na3 VO4). […] Reactions were initiated by the addition 0.5 ng of purified protein. Following a ten minute incubation at 25 degree. […] IC50 values for compound inhibition were calculated directly from graphs of optical density (arbitrary units) versus compound concentration following subtraction of blank values.

A word on the IC50: it is the midpoint of a concentration-inhibition curve.

T1 sequence (P35968 786-1356 limits assumed): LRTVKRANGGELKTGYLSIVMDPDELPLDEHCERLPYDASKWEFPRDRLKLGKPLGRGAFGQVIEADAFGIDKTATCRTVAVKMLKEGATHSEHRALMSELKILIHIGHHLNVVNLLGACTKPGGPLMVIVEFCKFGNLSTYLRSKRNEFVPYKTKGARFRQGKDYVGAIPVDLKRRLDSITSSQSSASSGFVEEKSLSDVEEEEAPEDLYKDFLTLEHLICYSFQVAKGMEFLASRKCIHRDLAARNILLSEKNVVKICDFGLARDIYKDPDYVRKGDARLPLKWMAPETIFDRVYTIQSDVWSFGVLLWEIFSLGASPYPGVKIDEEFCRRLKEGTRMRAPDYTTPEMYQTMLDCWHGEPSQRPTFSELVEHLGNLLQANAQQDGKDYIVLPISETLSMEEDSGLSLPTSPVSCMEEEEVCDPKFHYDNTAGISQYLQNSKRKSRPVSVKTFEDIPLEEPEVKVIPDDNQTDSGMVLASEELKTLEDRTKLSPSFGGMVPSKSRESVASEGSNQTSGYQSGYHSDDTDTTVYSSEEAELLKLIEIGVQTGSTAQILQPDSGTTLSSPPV
Chain of VEGFR1 (P17948 27-1338, species assumed): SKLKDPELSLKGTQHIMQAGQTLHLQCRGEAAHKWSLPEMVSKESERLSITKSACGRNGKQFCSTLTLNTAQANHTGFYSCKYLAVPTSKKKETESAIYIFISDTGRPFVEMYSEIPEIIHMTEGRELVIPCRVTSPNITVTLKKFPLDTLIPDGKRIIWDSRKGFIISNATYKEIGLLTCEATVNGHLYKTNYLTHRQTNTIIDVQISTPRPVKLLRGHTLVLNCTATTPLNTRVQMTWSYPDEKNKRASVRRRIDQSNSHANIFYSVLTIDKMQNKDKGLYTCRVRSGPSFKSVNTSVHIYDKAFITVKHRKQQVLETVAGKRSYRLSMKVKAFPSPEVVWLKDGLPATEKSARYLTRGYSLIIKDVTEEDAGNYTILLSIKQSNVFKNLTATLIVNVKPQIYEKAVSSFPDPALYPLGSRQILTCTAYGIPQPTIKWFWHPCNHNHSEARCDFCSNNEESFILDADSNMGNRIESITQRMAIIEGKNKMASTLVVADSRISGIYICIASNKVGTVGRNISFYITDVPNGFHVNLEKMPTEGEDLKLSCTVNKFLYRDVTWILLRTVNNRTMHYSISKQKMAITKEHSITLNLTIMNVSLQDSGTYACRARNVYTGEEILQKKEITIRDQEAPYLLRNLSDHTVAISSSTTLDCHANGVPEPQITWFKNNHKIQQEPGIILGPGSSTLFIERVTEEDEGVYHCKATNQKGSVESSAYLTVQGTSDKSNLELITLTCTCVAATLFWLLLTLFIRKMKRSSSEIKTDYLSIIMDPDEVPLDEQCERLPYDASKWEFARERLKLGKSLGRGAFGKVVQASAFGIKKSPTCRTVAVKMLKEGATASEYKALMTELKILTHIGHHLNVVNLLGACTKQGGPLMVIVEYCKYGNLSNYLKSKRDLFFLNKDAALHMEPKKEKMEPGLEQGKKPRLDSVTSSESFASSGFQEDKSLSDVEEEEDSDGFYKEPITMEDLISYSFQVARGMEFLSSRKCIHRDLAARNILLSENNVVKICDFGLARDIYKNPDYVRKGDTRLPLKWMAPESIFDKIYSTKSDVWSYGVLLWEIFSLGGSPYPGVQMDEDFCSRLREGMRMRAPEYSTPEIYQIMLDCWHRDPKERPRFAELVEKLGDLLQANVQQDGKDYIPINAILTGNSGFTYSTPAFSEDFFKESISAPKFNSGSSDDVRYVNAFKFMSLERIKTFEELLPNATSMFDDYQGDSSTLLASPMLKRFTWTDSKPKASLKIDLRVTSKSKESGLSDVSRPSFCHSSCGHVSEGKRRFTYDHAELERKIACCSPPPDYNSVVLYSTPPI
Chain of PDGFβ (P09619 33-1106): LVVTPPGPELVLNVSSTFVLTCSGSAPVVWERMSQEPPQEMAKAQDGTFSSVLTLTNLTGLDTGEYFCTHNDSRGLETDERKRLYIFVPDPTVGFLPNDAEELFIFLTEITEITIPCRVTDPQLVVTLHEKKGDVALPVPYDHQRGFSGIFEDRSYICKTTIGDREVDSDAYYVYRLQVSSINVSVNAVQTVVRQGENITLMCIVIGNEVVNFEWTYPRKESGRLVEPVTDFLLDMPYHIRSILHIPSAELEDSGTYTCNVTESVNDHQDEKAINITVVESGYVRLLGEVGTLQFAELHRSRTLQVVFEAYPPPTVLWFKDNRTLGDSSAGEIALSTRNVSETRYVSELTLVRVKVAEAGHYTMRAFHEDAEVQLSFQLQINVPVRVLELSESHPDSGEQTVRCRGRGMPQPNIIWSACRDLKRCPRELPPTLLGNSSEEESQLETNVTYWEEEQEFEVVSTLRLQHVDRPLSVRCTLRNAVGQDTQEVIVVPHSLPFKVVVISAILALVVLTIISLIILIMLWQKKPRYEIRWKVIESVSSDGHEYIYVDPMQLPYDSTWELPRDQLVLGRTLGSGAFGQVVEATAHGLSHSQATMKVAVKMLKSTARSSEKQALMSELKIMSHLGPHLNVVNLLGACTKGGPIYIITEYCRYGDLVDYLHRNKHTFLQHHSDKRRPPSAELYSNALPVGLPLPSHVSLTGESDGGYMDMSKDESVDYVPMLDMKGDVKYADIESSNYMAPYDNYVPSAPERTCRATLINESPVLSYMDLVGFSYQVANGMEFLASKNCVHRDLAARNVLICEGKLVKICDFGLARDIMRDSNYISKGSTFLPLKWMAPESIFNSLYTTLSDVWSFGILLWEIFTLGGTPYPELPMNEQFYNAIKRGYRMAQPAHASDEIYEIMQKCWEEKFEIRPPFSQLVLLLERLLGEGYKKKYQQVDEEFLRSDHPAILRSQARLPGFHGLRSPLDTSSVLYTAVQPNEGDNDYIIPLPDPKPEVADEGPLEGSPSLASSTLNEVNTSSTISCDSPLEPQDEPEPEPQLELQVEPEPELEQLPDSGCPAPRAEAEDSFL

Consider `Cc1ccc(F)c(NC(=O)c2ccc(F)c(Oc3ccnc(-c4cc(C(=O)NCCCN5CCC(O)CC5)c[nH]4)c3)c2)c1` [Example 184, 5-[4-(2-fluoro-5-{[(2-fluoro-5-methylphenyl)amino]carbonyl}phenoxy)pyridin-2-yl]-N-[3-(4-hydroxypiperidin-1-yl)propyl]-1H-pyrrole-3-carboxamide], for which the IC50 at PDGFβ turned out to be 49 nM; against VEGFR1, 51 nM; in assay [1], 19 nM.

Consider `Cc1ccc(F)c(NC(=O)c2ccc(F)c(Oc3ccnc(-c4cc(C(=O)NCCCN5CCCC5)c[nH]4)c3)c2)c1` [Example 187, 5-[4-(2-fluoro-5-{[(2-fluoro-5-methylphenyl)amino]carbonyl}phenoxy)pyridin-2-yl]-N-(3-pyrrolidin-1-ylpropyl)-1H-pyrrole-3-carboxamide], for which the 50% inhibitory concentration (IC50) at PDGFβ was found to be 98 nM; against VEGFR1, 27 nM; in assay [1], 15 nM.

With `Cc1ccc(F)c(NC(=O)Nc2ccc(Oc3ccnc(-c4cc(C(=O)NCCCN(C)CC(O)CO)c[nH]4)c3)cc2F)c1` (stereo not drawn) [Example 195, N-{3-[(2,3-dihydroxypropyl)(methyl)amino]propyl}-5-{4-[3-fluoro-4-({[(2-fluoro-5-methylphenyl)amino]carbonyl}amino)phenoxy]pyridin-2-yl}-1H-pyrrole-3-carboxamide], the IC50 at PDGFβ came out at 19 nM; against VEGFR1 it was 9 nM; in assay [1], 7 nM.

As to `COC(=O)CNCCCNC(=O)c1c[nH]c(-c2cc(Oc3ccc(NC(=O)Nc4cc(C)ccc4F)c(F)c3)ccn2)c1` [Example 196, methyl [(3-{[(5-{4-[3-fluoro-4-({[(2-fluoro-5-methylphenyl)amino]carbonyl}amino)phenoxy]pyridin-2-yl}-1H-pyrrol-3-yl)carbonyl]amino}propyl)amino]acetate], the figures for the IC50 (at PDGFβ; against VEGFR1; in assay [1]) were 19 nM, 10 nM and 8 nM, respectively.

Consider `Cc1ccc(F)c(NC(=O)Nc2ccc(Oc3ccnc(-c4cc(C(=O)NCCCN5CCCC(CO)C5)c[nH]4)c3)cc2F)c1` (stereo not drawn) [Example 205, 5-{4-[3-fluoro-4-({[(2-fluoro-5-methylphenyl)amino]carbonyl}amino)phenoxy]pyridin-2-yl}-N-{3-[3-(hydroxymethyl)piperidin-1-yl]propyl}-1H-pyrrole-3-carboxamide], for which the IC50 was determined as 15 nM against PDGFβ, 9 nM against VEGFR1 and 8 nM in assay [1].

As for `Cc1ccc(F)c(NC(=O)Nc2ccc(Oc3ccnc(-c4cc(C(=O)NCCCN5CCOC(CO)C5)c[nH]4)c3)cc2F)c1` (stereo not drawn) [Example 206, 5-{4-[3-fluoro-4-({[(2-fluoro-5-methylphenyl)amino]carbonyl}amino)phenoxy]pyridin-2-yl}-N-{3-[2-(hydroxymethyl)morpholin-4-yl]propyl}-1H-pyrrole-3-carboxamide], the IC50 against PDGFβ turned out to be 17 nM; on VEGFR1, 12 nM; in assay [1], 9 nM.

Regarding `Cc1ccc(F)c(NC(=O)Nc2ccc(Oc3ccnc(-c4cc(C(=O)NCCCN5CCC(O)CC5)c[nH]4)c3)cc2F)c1` [Example 207, 5-{4-[3-fluoro-4-({[(2-fluoro-5-methylphenyl)amino]carbonyl}amino)phenoxy]pyridin-2-yl}-N-[3-(4-hydroxypiperidin-1-yl)propyl]-1H-pyrrole-3-carboxamide], the IC50 against PDGFβ worked out at 17 nM; at VEGFR1, 10 nM; in assay [1], 7 nM.

On to `Cc1ccc(F)c(NC(=O)Nc2ccc(Oc3ccnc(-c4cc(C(=O)NCC(=O)O)c[nH]4)c3)cc2F)c1` [Example 210, {[(5-{4-[3-fluoro-4-({[(2-fluoro-5-methylphenyl)amino]carbonyl}amino)phenoxy]pyridin-2-yl}-1H-pyrrol-3-yl)carbonyl]amino}acetic acid], for which the IC50 amounted to 13 nM on PDGFβ, 8 nM against VEGFR1 and 12 nM in assay [1].
